Measurements from ChEMBL document CHEMBL1147171, “Synthesis and antiplasmodial activity of new N-[3-(4-{3-[(7-chloroquinolin-4-yl)amino]propyl}piperazin-1-yl)propyl]carboxamides” (Bioorg Med Chem, 2007).

Tests used:
L6 = assay: Cytotoxicity against L6 cells; format: cell-based; conditions: Rattus norvegicus
Plasmodium falciparum [1] = assay: Antiparasitic activity against chloroquine-sensitive Plasmodium falciparum NF54 in erythrocytes by [3H]hypoxanthine uptake; format: functional, organism-based
Plasmodium falciparum [2] = assay: Antiparasitic activity against chloroquine, pyrimethamine-resistant Plasmodium falciparum K1 in erythrocytes by [3H]hypoxanthine uptake; format: functional, organism-based
Plasmodium falciparum [3] = assay: Relative activity against Plasmodium falciparum NF54 and K1 as IC50 ratio; format: functional

Row | Structure (SMILES) | IC50 (L6) [µM] | IC50 (Plasmodium falciparum [1]) [nM] | IC50 (Plasmodium falciparum [2]) [nM] | Ratio IC50 (Plasmodium falciparum [3])
1 | O=C(CCCOc1ccccc1)NCCCN1CCN(CCCNc2ccnc3cc(Cl)ccc23)CC1 | 9.3 | 12 | 73 | 0.16
2 | CCOc1ccc(C(=O)NCCCN2CCN(CCCNc3ccnc4cc(Cl)ccc34)CC2)cc1 | 5.3 | 8 | 12 | 0.67
3 | O=C(CCCc1ccccc1)NCCCN1CCN(CCCNc2ccnc3cc(Cl)ccc23)CC1 | 11 | 17 | 61 | 0.28
4 | O=C(NCCCN1CCN(CCCNc2ccnc3cc(Cl)ccc23)CC1)c1cc(F)cc(F)c1 | 11.6 | 10 | 26 | 0.39
5 | Cc1ccccc1C(=O)NCCCN1CCN(CCCNc2ccnc3cc(Cl)ccc23)CC1 |  | 10 | 34 | 0.29
6 | COc1cccc(C(=O)NCCCN2CCN(CCCNc3ccnc4cc(Cl)ccc34)CC2)c1 | 9.3 | 10 | 28 | 0.36
7 | O=C(CCCC1CCCCC1)NCCCN1CCN(CCCNc2ccnc3cc(Cl)ccc23)CC1 |  | 156 | 272 | 0.57
8 | O=C(CCCCc1ccccc1)NCCCN1CCN(CCCNc2ccnc3cc(Cl)ccc23)CC1 | 9.4 | 12 | 54 | 0.22
9 | O=C(NCCCN1CCN(CCCNc2ccnc3cc(Cl)ccc23)CC1)c1ccc(Cl)c([N+](=O)[O-])c1 | 11.3 | 20 | 43 | 0.47
10 | O=C(NCCCN1CCN(CCCNc2ccnc3cc(Cl)ccc23)CC1)c1ccc(Oc2ccccc2)cc1 | 1.4 | 9 | 15 | 0.6
11 | O=C(NCCCN1CCN(CCCNc2ccnc3cc(Cl)ccc23)CC1)c1cccc(OC(F)(F)F)c1 | 8.5 | 12 | 15 | 0.8
12 | CC(C)CC(=O)NCCCN1CCN(CCCNc2ccnc3cc(Cl)ccc23)CC1 |  | 13 | 78 | 0.17
13 | CCCCCC(=O)NCCCN1CCN(CCCNc2ccnc3cc(Cl)ccc23)CC1 |  | 338 | 900 | 0.38
14 | O=C(NCCCN1CCN(CCCNc2ccnc3cc(Cl)ccc23)CC1)c1cccc(C(F)(F)F)c1 | 30.1 | 37 | 53 | 0.68
15 | O=C(NCCCN1CCN(CCCNc2ccnc3cc(Cl)ccc23)CC1)C(c1ccccc1)c1ccccc1 | 9.3 | 25 | 106 | 0.24
16 | COc1ccc(C(=O)NCCCN2CCN(CCCNc3ccnc4cc(Cl)ccc34)CC2)cc1OC |  | 36 | 447 | 0.08
17 | O=C(CCCc1c[nH]c2ccccc12)NCCCN1CCN(CCCNc2ccnc3cc(Cl)ccc23)CC1 | 6.5 | 15 | 69 | 0.22
18 | CC(=O)CCC(=O)NCCCN1CCN(CCCNc2ccnc3cc(Cl)ccc23)CC1 | 11 | 59 | 380 | 0.15
19 | O=C(Cc1ccc(Cl)cc1Cl)NCCCN1CCN(CCCNc2ccnc3cc(Cl)ccc23)CC1 | 15.1 | 8 | 24 | 0.34
20 | O=C(NCCCN1CCN(CCCNc2ccnc3cc(Cl)ccc23)CC1)c1ccccc1C(=O)c1ccccc1 | 3.2 | 10 | 17 | 0.59
21 | CC(C)=CC(=O)NCCCN1CCN(CCCNc2ccnc3cc(Cl)ccc23)CC1 | 30 | 23 | 65 | 0.36
22 | O=C(Cc1cccc2ccccc12)NCCCN1CCN(CCCNc2ccnc3cc(Cl)ccc23)CC1 | 6.2 | 13 | 41 | 0.32
23 | O=C(NCCCN1CCN(CCCNc2ccnc3cc(Cl)ccc23)CC1)c1ccc(F)c(F)c1 | 10 | 7 | 13 | 0.54
24 | O=C(Cc1c(Cl)cccc1Cl)NCCCN1CCN(CCCNc2ccnc3cc(Cl)ccc23)CC1 | 5.3 | 11 | 36 | 0.32
25 | NC(=O)c1ccc(C(=O)NCCCN2CCN(CCCNc3ccnc4cc(Cl)ccc34)CC2)cc1 |  | 83 | 249 | 0.33
26 | O=C(CC1CCCCC1)NCCCN1CCN(CCCNc2ccnc3cc(Cl)ccc23)CC1 | 7.2 | 10 | 27 | 0.37
27 | O=C(NCCCN1CCN(CCCNc2ccnc3cc(Cl)ccc23)CC1)c1cc(Cl)cc(Cl)c1 | 3 | 7 | 12 | 0.58
28 | O=C(NCCCN1CCN(CCCNc2ccnc3cc(Cl)ccc23)CC1)c1ccc(C(=O)c2ccccc2)cc1 |  | 1540 | 3070 | 0.5
29 | CCc1ccc(C(=O)NCCCN2CCN(CCCNc3ccnc4cc(Cl)ccc34)CC2)cc1 | 3.9 | 8 | 13 | 0.62
30 | CCN(CC)CCCC(C)Nc1ccnc2cc(Cl)ccc12 (stereo not given) [CHLOROQUINE] | 7.7 |  |  | 
